Experimental findings from paper PMC7144554, “2-(Arylamino)-6-(trifluoromethyl)nicotinic Acid Derivatives: New HIV-1 RT Dual Inhibitors Active on Viral Replication” (Molecules, 2020) are described below.

Several values for one entry are separate records, joined by “and”; a condition that tells them apart may be missing. Identical values can stand only once. Like-named read-outs stand apart in the source and are kept apart here.

The target in data set [1] is T1, Q475A RT RNase H function (Human immunodeficiency virus type 1 group M subtype B, UniProt P04585, Q1062A).
T1 construct: Amino acid substitutions were introduced into the p66 HIV-1 RT subunit coded in a p6HRT-prot plasmid; made in house; host or cells: Escherichia coli strain M15
Kind of data set: RNase H activity of mutated RT Q475A. The following applies: for RNase H Fold: vs wt RT. The data set is classed as biochemical, HIV-1. The protocol: (§1) Amino acid substitutions were introduced into the p66 HIV-1 RT subunit coded in a p6HRT-prot plasmid using the QuikChange protocol (Agilent Technologies Inc., Santa Clara, CA).
(§2) The RT-associated RNase H activity of wt and mutated HIV RTs was measured as described, in 100 µL reaction volume containing 50 mM Tris HCl pH 7.8, 6 mM MgCl2, 1 mM dithiothreitol (DTT), 80 mM KCl, hybrid RNA/DNA (5’-[…]-3’-Fluorescein, 5’-[…]-3’-Dabcyl), and different amounts of enzymes according to a linear range of dose-response curve—20 ng of wt RT; 50 ng K103N RT; 100 ng V108A RT; 4 ng Y181C RT; 100 ng Q475A RT; 100 ng A502F RT. The reaction mixture was incubated for 1 h at 37 °C, the reaction was stopped by addition of EDTA and products were measured with a Victor 3 (Perkin) at 490/528 nm.

For data set [2], the target named is T2, HIV-1 RT-associated RNase H activity (wt RT) (Human immunodeficiency virus type 1 group M subtype B, UniProt P04585).
T2 construct: RT is a heterodimeric (p66/p51) multifunctional enzyme; made in house; host or cells: Escherichia coli strain M15
Kind of data set: HIV-1 DNA polymerase-independent RNase H activity, wt RT. It counts as biochemical. How it is done: p6HRT-prot vector was kindly provided by Dr. Stuart Le Grice Laboratory. Heterodimeric RT was expressed essentially as described. Briefly, Escherichia coli strain M15 containing the p6HRT-prot vector were grown up to an OD600 of 0.7 and induced with isopropyl β-D-1-thiogalactopyranoside (IPTG) 1.7 mM for 4 h. Cell pellets were resuspended in Lysis buffer (50 mM sodium phosphate pH 7.8, 0.5 mg/mL lysozyme), incubated on ice for 20 min, added 0.3 M final NaCl, sonicated and centrifuged at 30,000× g for 1 h. The supernatant was loaded into a Ni^2+-sepharose column pre-equilibrated with loading buffer (50 mM sodium phosphate pH 7.8, 0.3 M NaCl, 10% glycerol, 10 mM imidazole) and washed thoroughly with wash buffer (50 mM sodium phosphate pH 6.0, 0.3 M NaCl, 10% glycerol, 80 mM imidazole). RT was gradient-eluted with elute buffer (wash buffer with 0.5 M imidazole). Fractions were collected, protein purity was checked by SDS-PAGE and found to be higher than 90%. RT containing fractions were pooled and diluted 1:1 with dilute buffer (50 mM sodium phosphate pH 7.0, 10% glycerol) then loaded into a Hi-trap Heparine HP GE (Healthcare Lifescience) pre-equilibrated with 10-column volume of loading buffer 2 (50 mM sodium phosphate pH 7.0, 10% glycerol, 150 mM NaCl). Column was then washed with loading buffer 2 and RT was gradient-eluted with elute buffer 2 (50 mM sodium phosphate pH 7.0, 10% glycerol, 150 mM NaCl). Fractions were collected, protein was dialyzed and stored in buffer containing 50 mM Tris HCl pH 7.0, 25 mM NaCl, 1 mM EDTA, 50% glycerol. Catalytic activities and protein concentration were determined. Enzyme-containing fractions were pooled and aliquots were stored at −80 °C.
as §2

For data set [3], the target named is T3, V108A RT RNase H function (Human immunodeficiency virus type 1 group M subtype B, UniProt P04585, V695A).
T3 construct: Amino acid substitutions were introduced into the p66 HIV-1 RT subunit coded in a p6HRT-prot plasmid; made in house; host or cells: Escherichia coli strain M15
The experiment in a line: RNase H activity of mutated RT V108A. It counts as biochemical, HIV-1. How it is done:
as §1, §2

Data set [4] concerns the target T4, A502F RT RNase H function (Human immunodeficiency virus type 1 group M subtype B, UniProt P04585, A1089F).
T4 construct: Amino acid substitutions were introduced into the p66 HIV-1 RT subunit coded in a p6HRT-prot plasmid; made in house; host or cells: Escherichia coli strain M15
The experiment in a line: RNase H activity of mutated RT A502F. It counts as biochemical, HIV-1. The following applies: for RNase H Fold: vs wt RT. The protocol:
as §1, §2

The target in the next data set is T5, A502F RT RDDP activity (Human immunodeficiency virus type 1 group M subtype B, UniProt P04585, A1089F).
T5 construct: Amino acid substitutions were introduced into the p66 HIV-1 RT subunit coded in a p6HRT-prot plasmid; made in house; host or cells: Escherichia coli strain M15
Kind of data set: biochemical. The arrangement: species or system HIV-1.

Data set [5] has as its target T6, HIV-1 RT-associated RDDP activity (wt RT) (Human immunodeficiency virus type 1 group M subtype B, UniProt P04585).
T6 construct: RT is a heterodimeric (p66/p51) multifunctional enzyme; made in house; host or cells: Escherichia coli strain M15
Kind of data set: biochemical.
Procedure: p6HRT-prot vector was kindly provided by Dr. Stuart Le Grice Laboratory. Heterodimeric RT was expressed essentially as described [42]. Briefly, Escherichia coli strain M15 containing the p6HRT-prot vector were grown up to an OD600 of 0.7 and induced with isopropyl β-D-1-thiogalactopyranoside (IPTG) 1.7 mM for 4 h. Cell pellets were resuspended in Lysis buffer (50 mM sodium phosphate pH 7.8, 0.5 mg/mL lysozyme), incubated on ice for 20 min, added 0.3 M final NaCl, sonicated and centrifuged at 30,000× g for 1 h. The supernatant was loaded into a Ni^2+-sepharose column pre-equilibrated with loading buffer (50 mM sodium phosphate pH 7.8, 0.3 M NaCl, 10% glycerol, 10 mM imidazole) and washed thoroughly with wash buffer (50 mM sodium phosphate pH 6.0, 0.3 M NaCl, 10% glycerol, 80 mM imidazole). RT was gradient-eluted with elute buffer (wash buffer with 0.5 M imidazole). Fractions were collected, protein purity was checked by SDS-PAGE and found to be higher than 90%. […] Catalytic activities and protein concentration were determined. […]
The HIV-1 RT-associated RDDP activity was measured as described [66]. […]

The target in data set [6] is T7, K103N RT RNase H function (Human immunodeficiency virus type 1 group M subtype B, UniProt P04585, K690N).
T7 construct: Amino acid substitutions were introduced into the p66 HIV-1 RT subunit coded in a p6HRT-prot plasmid; made in house; host or cells: Escherichia coli strain M15
Kind of data set: RNase H activity of mutated RT K103N. It counts as biochemical, HIV-1. The protocol:
as §1, §2

Data set [7] in a line: Cytotoxicity in TZMbl cells. It counts as cell-based. The following applies: human.
The next data set deals with TZMbl cells. The experiment in a line: Cytotoxicity in TZMbl cells. The settings on record: highest concentration tested. The data set is classed as cell-based.
A short description of data set [8]: Cell viability in CEM cells (MTT). It counts as cell-based. The settings on record: human, MTT, 5 days. How it is done:
(§3) Drug-mediated inhibition of virus-induced cytotoxicity was assayed in TZM-BL cells. Triplicate wells of 96-well plates containing 1 × 10^4 TZMbl cells were infected with HIV-1 IIIB strain at a multiplicity of infection of 0.1. Serial dilutions of drugs were added immediately after infection. Luciferase activity was measured as reported. Two days after infection, the culture medium was removed from each well and 100 µl of Bright Glo reagent (Promega, Luis Obispo, CA) was added to the cells for measurement of luminescence using a Victor 2 luminometer (Perkin). The 50% effective concentration (EC50) was defined as the concentration that caused a 50% reduction of luciferase activity (relative light units) compared to virus control wells. Cell viability in CEM cells was quantified 5 days after infection with the MTT-dye reduction method.

A further data set relates to CEM cells. The experiment in a line: Cell viability in CEM cells (MTT). The data set is classed as cell-based. The settings on record: highest concentration tested. The protocol:
as §3

The next data set has as its target T8, Y181C RT RDDP activity (Human immunodeficiency virus type 1 group M subtype B, UniProt P04585, Y768C).
T8 construct: Amino acid substitutions were introduced into the p66 HIV-1 RT subunit coded in a p6HRT-prot plasmid; made in house; host or cells: Escherichia coli strain M15
The experiment in a line: biochemical. The arrangement: species or system HIV-1.

The next data set has as its target T9, K103N RT RDDP activity (Human immunodeficiency virus type 1 group M subtype B, UniProt P04585, K690N).
T9 construct: Amino acid substitutions were introduced into the p66 HIV-1 RT subunit coded in a p6HRT-prot plasmid; made in house; host or cells: Escherichia coli strain M15
Kind of data set: biochemical. Further details: species or system HIV-1.

The target in another data set is T10, V108A RT RDDP activity (Human immunodeficiency virus type 1 group M subtype B, UniProt P04585, V695A).
T10 construct: Amino acid substitutions were introduced into the p66 HIV-1 RT subunit coded in a p6HRT-prot plasmid; made in house; host or cells: Escherichia coli strain M15
Kind of data set: biochemical. The arrangement: species or system HIV-1.

In a further data set the target is T11, Q475A RT RDDP activity (Human immunodeficiency virus type 1 group M subtype B, UniProt P04585, Q1062A).
T11 construct: Amino acid substitutions were introduced into the p66 HIV-1 RT subunit coded in a p6HRT-prot plasmid; made in house; host or cells: Escherichia coli strain M15
The experiment in a line: biochemical. Further details: species or system HIV-1.

The next data set relates to HIV-1 IIIB strain. The experiment in a line: Antiviral assay, HIV-1 replication in TZMbl cells (luciferase). The following applies: Human immunodeficiency virus 1, TZM-bl; TZMbl cells, HIV-1 IIIB; read-out: HIV-1 EC50 TZMbl Cells. It counts as cell-based.
Data set [9] deals with T12, Y181C RT RNase H function (Human immunodeficiency virus type 1 group M subtype B, UniProt P04585, Y768C).
T12 construct: Amino acid substitutions were introduced into the p66 HIV-1 RT subunit coded in a p6HRT-prot plasmid; made in house; host or cells: Escherichia coli strain M15
The experiment in a line: RNase H activity of mutated RT Y181C. The data set is classed as biochemical, HIV-1. How it is done: as §1, §2

Procedure for A502F RT RDDP activity: (§4) The HIV-1 RT-associated RDDP activity was measured as described [66]. Briefly, in 25 µL volume containing 60 mM Tris-HCl pH 8.1, 8 mM MgCl2, 60 mM KCl, 13 mM DTT, poly(A)-oligo(dT), 100 µM dTTP, and 6 ng wt RT (or 21 ng K103N RT; 30 ng V108A RT; 1,5 ng Y181C RT; 21 ng Q475A RT; 15 ng A502F RT).
Procedure for HIV-1 IIIB strain: Drug-mediated inhibition of virus-induced cytotoxicity was assayed in TZM-BL cells. […] Serial dilutions of drugs were added immediately after infection. Luciferase activity was measured as reported [67]. Two days after infection, the culture medium was removed from each well and 100 µl of Bright Glo reagent (Promega, Luis Obispo, CA) was added to the cells for measurement of luminescence using a Victor 2 luminometer (Perkin). […] Cell viability in CEM cells was quantified 5 days after infection with the MTT-dye reduction method.
Procedure for K103N RT RDDP activity: as §4
Procedure for Q475A RT RDDP activity: as §4
Procedure for V108A RT RDDP activity: as §4
Procedure for Y181C RT RDDP activity: as §4

Usually IC50 stands for the concentration that gives 50% inhibition. For the molecule `CC(C)c1ccc(O)c(=O)c(O)c1` [BTP, beta-Thujaplicinol, reference compound], the IC50 in data set [1] came out at 0.19 ± 0.03 µM; in data set [3] (read-out: RNase H IC50, V108A RT), 0.34 ± 0.4 µM; in [4] (A502F RT, read-out: RNase H IC50), 0.17 ± 0.03 µM. The “RNase H Fold” value in data set [1] (Q475A RT) was found to be 1.0; in [2] (WT RT), 1; in data set [4] (A502F RT) it was 0.9.

The CC50 is the concentration at which the toxic effect on the cells reaches its halfway point. The low end stands for harm at low concentration, the high end for better tolerance by the cells. What is called EC50 is the concentration needed to bring the measured effect to its halfway point. Regarding `COc1cc(OC)cc(OC(=O)c2ccc(C(F)(F)F)nc2Nc2cc(Cl)ccc2C)c1` [Compound 21], the IC50 at A502F RT RDDP activity is 8 ± 0.7 µM; in data set [1], > 100 µM; in data set [5] it was 16.1 ± 1.2 µM; in data set [6], 53.9 ± 2.2 µM; against Y181C RT RDDP activity, 22.5 ± 5.3 µM; in [2] (RNase H IC50, wt RT), 14 µM and 14.7 µM. Besides, the IC50 on K103N RT RDDP activity was 16.5 ± 4.8 µM; at V108A RT RDDP activity, 82.8 ± 6.3 µM; in [3], > 100 µM; on Q475A RT RDDP activity it was 17 ± 4.5 µM; in data set [9], 11.9 ± 1.4 µM; in data set [4], > 100 µM. Further, the “RDDP Fold” value on A502F RT RDDP activity (A502F RT, IC50 mutated RT / IC50 wt RT) was 0.5. Besides, the “RNase H IC50” value in data set [1] (Q475A RT), in [3] (V108A RT) and in data set [4] (A502F RT) was “completely lost its RNase H inhibitory efficacy” throughout. The “RNase H Fold” value in data set [1] (Q475A RT) and in [4] (A502F RT) was >6.8 in each case. Besides, the CC50 in [7] is > 50 µM. Also, in the data set with TZMbl cells, the “percentage of cells viability in presence of the highest concentration of inhibitor tested, TZMbl” value is given as 59%. Moreover, in data set [8], the CC50 at 5 days was > 50 µM. For the same molecule, the “percentage of cells viability in presence of the highest concentration of inhibitor tested, CEM cells” value with CEM cells stood at 100%. Further, the 50% effective concentration (EC50) with HIV-1 IIIB strain came out at 5 ± 0.8 µM.
